Ends that are not written are not given here.
Experiments:
MAS receptor = assay: FLIPR calcium mobilization assay, HEK-293 cells expressing MAS receptor; type: cell-based, rat and human; conditions: HEK-293 cells expressing the clone MAS receptor; Fluo-3
Method: HEK-293 cells were transfected with a mammalian expression construct coding for the rat and human MAS receptor (pcDNA 3.1 vector, Invitrogen) using the Superfect reagent (Qiagen). A stable receptor pool of MAS receptor was developed by applying a selection marker (G418, 0.9 mg/ml) and the cells were maintained in this selection medium. The presence of mRNA specific for clone MAS receptor was assessed by Northern blot analysis and by the reverse transcriptase polymerase chain reaction (RT-PCR).
(§1) A functional assay was performed with FLIPR (Fluorescent Imaging Plate Reader, Molecular Devices) using the fluorescent calcium indicator Fluo-3 (Molecular Probes) on a 96 well platform. HEK-293 cells, either expressing the receptor or wild type cells, were loaded with Fluo-3 as follows. Stable HEK-293 clones expressing rat and human MAS receptor or parental cells were plated at a density of 10,000 cells/well in a 96 well plate. On the day of the experiment, the MAS receptor cells were loaded with fluorescent solution (Dulbecco's modified medium with 10% fetal bovine serum containing 4 μM Fluo-3 and 20% pluronic acid). The cells were incubated at 37° C. for one hour in a humidified chamber. Following the incubation step, cells were washed five times in Hanks' with 20 mM Hepes and 0.1% BSA (pH 7.4). The cells were analyzed using the FLIPR system to measure the mobilization of intracellular calcium in response to different compounds.

parental HEK-293 cells = assay: FLIPR calcium mobilization assay, parental (non-transfected) HEK-293 cells; type: cell-based; conditions: wild type (parental, non-transfected) HEK-293 cells; Fluo-3
Method: as §1

[1] = test system: mouse peritoneal macrophages; conditions: administered to mice; not inhibited by naloxone; cited from earlier work
[2] = non-thermal and mechanical analgesia, administered ICV; cited from earlier work

YGGFLRRIRPKLKWDNQ-COOH (YGGFLRRIRPKLKWDNQ-OH) [Dynorphin A]
calcium response (FLIPR signal) (MAS receptor): consistently elicited signals | calcium response (FLIPR signal) (parental HEK-293 cells): not in the wild type cells | phagocytosis [1]: enhanced phagocytosis | analgesia [2]: moderately effective

Dynorphin A 1-13: analogue (fragment 1-13) of Dynorphin A (YGGFLRRIRPKLK; Dynorphin A(1-13); UniProt P01213 207-219, looked up, fragment)
calcium response (FLIPR signal) (MAS receptor): consistently elicited signals | calcium response (FLIPR signal) (parental HEK-293 cells): not in the wild type cells

YGGFLRRIRPKLKWDNQ-COOH or NH2 (not fully specified; printed as YGGFLRRIRPKLKWDNQ-COOH or NH2) [Dynorphin A-NH2, C-terminal amide analogue of Dynorphin A]
calcium response (FLIPR signal) (MAS receptor): consistently elicited signals | calcium response (FLIPR signal) (parental HEK-293 cells): not in the wild type cells

Source: patent US7078177B2, “Method of assaying for agonists or antagonist of Dynorphin A binding to the MAS receptor” (AstraZeneca AB, priority 2000, dated 2006)
